Entries after “also recorded” stand apart in the source; their conditions may differ.
What was measured:
[1] = molecular target: SH2 domain (CSH2) (Bos taurus, UniProt P23727); settings: mimic of the natural ligand; cited from earlier work
[2] = tested on: 26 base synthetic double stranded 5′ biotinylated oligonucleotide (DNA); assay: TINS: 1H-NMR difference spectrum, streptavidin-sepharose resin vs resin with biotinylated oligonucleotide bound; type: binding; settings: 1 mM solution in D2O; oligonucleotide on streptavidin-sepharose resin
[3] = molecular target: T1, C-terminal SH2 domain (CSH2) from the 85 kDa, alpha form of the regulatory subunit of bovine phosphoinositide 3′ kinase (Bos taurus, UniProt P23727); assay: Target immobilized NMR screening (TINS): 1H-NMR difference spectrum, control resin vs resin with CSH2 covalently bound; type: binding; settings: 1 mM each compound in D2O, d11-Tris pH 7.5, 50 mM NaCl, CSH2 on Actigel ALD resin
T1 construct: the c-terminal SH2 domain of p85alpha was prepared as previously described by Siegal et al; made in house
Text: In this example, it was aimed to investigate whether binding of a small molecule to a target bound to the resin would be detectable in the ^1H spectrum. The test system utilized the C-terminal SH2 domain (CSH2) from the 85 kDa, alpha form of the regulatory subunit of bovine phosphoinositide 3′ kinase. This small (110 residues) protein domain has well characterized binding specificity.
To see whether the method of the present invention provides a mode appropriate for efficient screening of a large library of compounds, CSH2 was immobilized on a chemically activated chromatography resin of Actigel ALD by covalent attachment. Attachment occurs via primary amines on the surface of CSH2 as described in the manufacturers literature and therefore is (approximately) randomly oriented.
In detail, the c-terminal SH2 domain of p85alpha was prepared as previously described by Siegal et al. in J. Mol. Biol. 276(1998), 461-478. 11 mg of this domain CSH2 in a buffer consisting of 25 mM HEPES pH 7.5 and 100 mM NaCl was incubated with 1 ml of Actigel ALD (Sterogene, Carlsbad, Calif., USA) according to the manufacturers protocol. This amount corresponds to a 1 mM solution concentration. Unbound sites on the gel were blocked using d11-Tris (Cambridge Isotopes, Andover, Mass., USA). The control resin was derivatized exclusively with d11-Tris.
The potential ligands were dissolved in 99% D2O with d11-Tris.
In all cases, the control and experimental target containing resins were washed three times with the same mixture of test substances.
All NMR spectra were recorded on a Bruker (Bruker, Germany) DMX 600 spectrometer. Spectra typically consisted of 16 to 64 transients of 2 k complex points, were apodized using a sin^2 function and automatically baseline corrected using the supplied XWINNMR software provided by the manufacturer, Bruker, and methods described in the manufacturers literature. Difference spectra were also calculated using XWINNMR

T1 sequence (P23727 624-718 limits assumed): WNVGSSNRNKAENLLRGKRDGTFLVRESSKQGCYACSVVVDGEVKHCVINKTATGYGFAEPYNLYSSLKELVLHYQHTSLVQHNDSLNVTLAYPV
Chain of SH2 domain (CSH2) (P23727 624-718 limits assumed): as above

Row | Compound | binding to immobilized CSH2 (diminution of peaks / peaks in the difference spectrum) [3] | binding to immobilized oligonucleotide (peaks in the difference spectrum) [2] | other results
1 | c1c[nH]cn1 [imidazole, Imidazole] | – | do not bind | –
2 | NCCCNCCCCNCCCN [spermine] | – | Only peaks derived from spermine; also recorded: can be detected; also recorded: only spermine peaks remain | –
3 | CSCC[C@H](N)C(=O)O [methionine] | – | – | binding to immobilized CSH2 (diminution of peaks / peaks in the difference spectrum) ([3]; listed as M): small residual peaks; also recorded: Weak binding
4 | N=C(N)NCCC[C@H](N)C(=O)O [arginine] | do not bind | do not bind | –

Now from value to molecule, other results behind:

Row | binding to immobilized CSH2 (diminution of peaks / peaks in the difference spectrum) [3] | Compound | binding to immobilized oligonucleotide (peaks in the difference spectrum) [2] | other results
5 | only peaks derived from phosphotyrosine | N[C@@H](Cc1ccc(OP(=O)(O)O)cc1)C(=O)O [phosphotyrosine] | do not bind | Kd [1]: ~600 µM; binding to immobilized CSH2 (diminution of peaks / peaks in the difference spectrum) ([3]; listed as pY): clear diminution of the peaks; also recorded: relatively tight binding
6 | do not bind | NCC(=O)O [glycine] | – | –
